Experimental data from patent publication US7973147B2, “K04-0144 substance and a process for production thereof” (The Kitasato Institute, priority 2006, dated 2011).
Values after ≈ are worked out from the molar mass of the structure shown. “Also recorded” adds a separate entry of the source. Like-named read-outs stand apart in the source and are kept apart here.

Columns and labels:
[1] = system: methicillin-resistant Staphylococcus aureus (MRSA) K24 strain; assay: Enhancing action on activity of imipenem by paper disc method; type: cell-based
Description: Clinical isolate of methicillin-resistant Staphylococcus aureus (MRSA) K24 strain was used as a test microorganism. After the strain of MRSA K24 was cultured in Mueller-Hinton broth (2.1% w/v) (DIFCO) at 37° C. for 20 hours, the strain was suspended to the concentration corresponding to 0.5 Mc FARAND (about 10^8 CFU/ml) in the same medium. The suspension was smeared on MHA medium (Mueller-Hinton broth 2.1% (w/v), agar 1.5%) and a medium of the same composition containing imipenem (Tienem for Intramuscular Injection, 0.5 g, Banyu Pharmaceutical Co., Ltd., Japan) with a concentration without affecting the growth of test microorganisms, i.e. final concentration of 10 μg/ml. Smearing was performed according to the method of National Committee for Laboratory Standard, the U.S. (NCCLS), by using sterilized cotton-tipped swab (Kawamoto Sangyo Co., Ltd., Japan).

Solubility in solvent = type: physicochemical
MRSA 70 = assay: MIC, agar plate dilution method; type: cell-based, methicillin-resistant Staphylococcus aureus; details: Staphylococcus aureus; MRSA 70; 37° C., 20 hours; read-out: MIC
Description: (§1) Assay of minimum inhibitory concentration (MIC) was performed according to the agar plate dilution method (Method of Japan Society of Chemotherapy, CHEMOTHERAPY 29, 76-79, 1981).
(§2) Test organisms used were 27 types of microorganisms including clinical isolates of methicillin-resistant Staphylococcus aureus. Each test organism was cultured in Mueller-Hinton broth (2.1% w/v) (DIFCO) at 37° C. for 20 hours, and the cultured cells were suspended to about 10^6 cell counts/ml in the same medium, then was used as the microbial suspension for inoculation. The prepared microbial suspension was smeared by using the microplanter on MHA medium (Mueller-Hinton broth 2.1% (w/v) and agar 1.5%) containing K04-0144A substance, K04-0144B substance or K04-0144C substance, each of which was subjected to two-fold stepwise dilution from 128 μg/ml. After culturing at 37° C. for 20 hours, MIC was determined by macroscopically confirming the growth of microorganisms. Vancomycin, arbekacin and linezolid were used as a comparative control.

MRSA 92-1191 = assay: MIC, agar plate dilution method; type: cell-based, methicillin-resistant Staphylococcus aureus; details: Staphylococcus aureus; MRSA 92-1191; 37° C., 20 hours; read-out: MIC
Description: as §1, §2

MRSA N315 IR94 = assay: MIC, agar plate dilution method; type: cell-based, methicillin-resistant Staphylococcus aureus; details: Staphylococcus aureus, 20 h
Description: as §1, §2

A. calcoaceticus IFO2552 = assay: MIC, agar plate dilution method; type: cell-based; details: Acinetobacter calcoaceticus; A. calcoaceticus IFO2552; 37° C., 20 hours; read-out: MIC
Description: as §1, §2

C. freundii ATCC8090 = assay: MIC, agar plate dilution method; type: cell-based; details: Citrobacter freundii; C. freundii ATCC8090; 37° C., 20 hours; read-out: MIC
Description: as §1, §2

E. aerogenes NCTC10006 = assay: MIC, agar plate dilution method; type: cell-based; details: Klebsiella aerogenes; E. aerogenes NCTC10006; 37° C., 20 hours; read-out: MIC
Description: as §1, §2

E. cloacae IFO13535 = assay: MIC, agar plate dilution method; type: cell-based; details: Enterobacter cloacae; E. cloacae IFO13535; 37° C., 20 hours; read-out: MIC
Description: as §1, §2

E. coli NIHJ JC-2 = assay: MIC, agar plate dilution method; type: cell-based; details: Escherichia coli, NIHJJC2; E. coli NIHJ JC-2; 37° C., 20 hours; read-out: MIC
Description: as §1, §2

[2] = system: E. facecalis NTCT12201(VanA); assay: MIC, agar plate dilution method; type: cell-based; details: E. facecalis NTCT12201(VanA); 37° C., 20 hours; read-out: MIC
Description: as §1, §2

E. faecalis ATCC21212 = assay: MIC, agar plate dilution method; type: cell-based; details: Enterococcus faecalis; E. faecalis ATCC21212; 37° C., 20 hours; read-out: MIC
Description: as §1, §2

[3] = system: E. faecium NTCT12203(VanA); assay: MIC, agar plate dilution method; type: cell-based; details: Enterococcus faecium; E. faecium NTCT12203(VanA); 37° C., 20 hours; read-out: MIC
Description: as §1, §2

K. pneumoniae NCTN9632 = assay: MIC, agar plate dilution method; type: cell-based; details: Klebsiella pneumoniae; K. pneumoniae NCTN9632; 37° C., 20 hours; read-out: MIC
Description: as §1, §2

M. luteus ATCC9341 = assay: MIC, agar plate dilution method; type: cell-based; details: Micrococcus luteus; M. luteus ATCC9341; 37° C., 20 hours; read-out: MIC
Description: as §1, §2

M. morganii IID Kono = assay: MIC, agar plate dilution method; type: cell-based; details: Morganella morganii; M. morganii IID Kono; 37° C., 20 hours; read-out: MIC
Description: as §1, §2

P. aeruginosa 46001 = assay: MIC, agar plate dilution method; type: cell-based; details: Pseudomonas aeruginosa; P. aeruginosa 46001; 37° C., 20 hours; read-out: MIC
Description: as §1, §2

P. aeruginosa E-2 = assay: MIC, agar plate dilution method; type: cell-based; details: Pseudomonas aeruginosa, E2; P. aeruginosa E-2; 37° C., 20 hours; read-out: MIC
Description: as §1, §2

P. mirabilis IFO3849 = assay: MIC, agar plate dilution method; type: cell-based; details: Proteus mirabilis; P. mirabilis IFO3849; 37° C., 20 hours; read-out: MIC
Description: as §1, §2

P. vulgaris OX-19 = assay: MIC, agar plate dilution method; type: cell-based; details: Proteus vulgaris, OX19; P. vulgaris OX-19; 37° C., 20 hours; read-out: MIC
Description: as §1, §2

S. aureus FDA209P = assay: MIC, agar plate dilution method; type: cell-based; details: Staphylococcus aureus; S. aureus FDA209P; 37° C., 20 hours; read-out: MIC
Description: as §1, §2

S. aureus ISP217 = assay: MIC, agar plate dilution method; type: cell-based; details: Staphylococcus aureus; S. aureus ISP217; 37° C., 20 hours; read-out: MIC
Description: as §1, §2

S. aureus ISP447 = assay: MIC, agar plate dilution method; type: cell-based; details: Staphylococcus aureus; S. aureus ISP447; 37° C., 20 hours; read-out: MIC
Description: as §1, §2

S. aureus Smith = assay: MIC, agar plate dilution method; type: cell-based; details: Staphylococcus aureus; S. aureus Smith; 37° C., 20 hours; read-out: MIC
Description: as §1, §2

S. epidermidis IFO12648 = assay: MIC, agar plate dilution method; type: cell-based; details: Staphylococcus epidermidis; S. epidermidis IFO12648; 37° C., 20 hours; read-out: MIC
Description: as §1, §2

S. marcescens IFO12648 = assay: MIC, agar plate dilution method; type: cell-based; details: Serratia marcescens; S. marcescens IFO12648; 37° C., 20 hours; read-out: MIC
Description: as §1, §2

[4] = system: MRSA (Clinical isolate, the Kitasato Hospital, Japan); assay: Enhancing action of K04-0144D substance on antibiotic activities, broth microdilution method; type: cell-based, methicillin-resistant Staphylococcus aureus; details: for MIC: Staphylococcus aureus, MRSA

C=C/C(C)=C/CC1C2(C)CCCC(C)(C)C2CC(O)C1(O)CSCC(NC(C)=O)C(=O)O (centres unmarked) [K04-0144D substance]
Diameter of inhibition ring ([1]; 1 μg/6 mm disc, Imipenem (10 μg/ml) (+)): 15 mm
Diameter of inhibition ring ([1]; 1 μg/6 mm disc, Imipenem (10 μg/ml) (−)): did not exhibit an inhibitory ring
Diameter of inhibition ring ([1]; 10 μg/6 mm disc, Imipenem (10 μg/ml) (+)): 26 mm
Diameter of inhibition ring ([1]; 10 μg/6 mm disc, Imipenem (10 μg/ml) (−)): 14 mm
Solubility in solvent (Solubility in solvent): Soluble in methanol and water acetonitrile; also recorded: Insoluble in chloroform and hexane ethyl acetate

CC(=O)NC[C@H]1CN(c2ccc(N3CCOCC3)c(F)c2)C(=O)O1 [linezolid, reference compound]
MIC (MRSA 70): 0.5 mg/L (≈ 1.48 µM)
MIC (MRSA 92-1191): 2 mg/L (≈ 5.93 µM)
MIC (MRSA N315 IR94): 1 mg/L (≈ 2.96 µM)
MIC (A. calcoaceticus IFO2552): > 32 mg/L
MIC (C. freundii ATCC8090): > 32 mg/L
MIC (E. aerogenes NCTC10006): > 32 mg/L
MIC (E. cloacae IFO13535): > 32 mg/L
MIC (E. coli NIHJ JC-2): > 32 mg/L
MIC [2]: 2 mg/L (≈ 5.93 µM)
MIC (E. faecalis ATCC21212): 2 mg/L (≈ 5.93 µM)
MIC [3]: 2 mg/L (≈ 5.93 µM)
MIC (K. pneumoniae NCTN9632): > 32 mg/L
MIC (M. luteus ATCC9341): 2 mg/L (≈ 5.93 µM)
MIC (M. morganii IID Kono): > 32 mg/L
MIC (P. aeruginosa 46001): > 32 mg/L
MIC (P. aeruginosa E-2): > 32 mg/L
MIC (P. mirabilis IFO3849): > 32 mg/L
MIC (P. vulgaris OX-19): 8 mg/L (≈ 23.7 µM)
MIC (S. aureus FDA209P): 1 mg/L (≈ 2.96 µM)
MIC (S. aureus ISP217): 2 mg/L (≈ 5.93 µM)
MIC (S. aureus ISP447): 2 mg/L (≈ 5.93 µM)
MIC (S. aureus Smith): 2 mg/L (≈ 5.93 µM)
MIC (S. epidermidis IFO12648): 2 mg/L (≈ 5.93 µM)
MIC (S. marcescens IFO12648): > 32 mg/L

C[C@@H](O)[C@H]1C(=O)N2C(C(=O)O)=C(SCCN=CN)C[C@H]12 [Imipenem, imipenem]
Ratio (−/+K04-0144D) ([4]; MIC alone / MIC with K04-0144D substance 16 μg/ml): 1024
MIC ([4]; antibiotic alone, without K04-0144D substance, read-out: Minimum Inhibitory Concentration (−)): 32 mg/L
MIC ([4]; combined use with K04-0144D substance 16 μg/ml, read-out: Minimum Inhibitory Concentration (+)): 0.03 mg/L
